Laboratory results published in the NIST ThermoML archive (doi:10.1016/j.fluid.2011.11.013).
± gives the expanded uncertainty stated by the source.

Conditions: Liquid, Closed cell (Static) method

FC(F)(F)I [trifluoroiodomethane]
vapor or sublimation pressure (258.15 K): 133 ± 1.1 kPa
vapor or sublimation pressure (263.15 K): 160.4 ± 1.1 kPa
vapor or sublimation pressure (273.15 K): 228.4 ± 1.2 kPa
vapor or sublimation pressure (283.15 K): 316.4 ± 1.4 kPa

FC(F)C(F)F [1,1,2,2-tetrafluoroethane]
vapor or sublimation pressure (258.15 K): 124.3 ± 1.1 kPa
vapor or sublimation pressure (263.15 K): 153 ± 1.1 kPa
vapor or sublimation pressure (273.15 K): 225.9 ± 1.2 kPa
vapor or sublimation pressure (283.15 K): 323.4 ± 1.5 kPa
